From publication PMC3282623, “High-pressure-induced water penetration into 3-isopropylmalate dehydrogenase” (Acta Crystallographica Section D: Biological Crystallography, 2012)

Biological target: T1, SoIPMDH (3-isopropylmalate dehydrogenase from Shewanella oneidensis MR-1) (Shewanella oneidensis, UniProt Q8E9N3)
T1 construct: gene leuB; N-terminally His6-tagged (pQE-80L, BamHI/HindIII), expressed in E. coli BL21-CodonPlus(DE3)-RIL; tag removal not mentioned; homodimer
Test: X-ray crystallography of the complex
Assay type: binding
Details: active site, closed dimer; calcium in active site; 10 mM IPM, 10 mM MgCl2, 200 mM calcium acetate, pH 7.0, room temperature, 0.1 MPa (also 160-650 MPa: 3vl2, 3vl3, 3vl4, 3vl6, 3vl7)

T1 sequence (Q8E9N3 2-364): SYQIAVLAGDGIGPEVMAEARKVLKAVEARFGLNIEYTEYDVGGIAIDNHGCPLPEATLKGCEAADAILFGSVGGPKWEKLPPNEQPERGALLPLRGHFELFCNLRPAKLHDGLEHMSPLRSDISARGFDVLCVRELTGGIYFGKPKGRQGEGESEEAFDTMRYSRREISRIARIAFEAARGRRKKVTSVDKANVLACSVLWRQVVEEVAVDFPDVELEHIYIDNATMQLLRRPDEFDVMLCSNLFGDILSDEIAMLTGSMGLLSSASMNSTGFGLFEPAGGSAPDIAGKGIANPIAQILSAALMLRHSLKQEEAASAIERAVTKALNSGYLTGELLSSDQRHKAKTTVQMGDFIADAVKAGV

## CC(C)[C@H](C(=O)O)[C@@H](O)C(=O)O [3-isopropylmalate]
  X-ray crystallography of the complex: the SoIPMDH dimer was crystallized in complex with its substrate, the IPM molecule
